Some test systems named below: CCRF-CEM leukemia; RPMI-8226 leukemia; UACC-62 melanoma; U251 CNS; OVCAR-8 ovarian; DMS 273 small cell lung; HT29 colon; MALME-3M melanoma; HOP-92 NSCLC; MDA-N.
Holding throughout (experiment): NCI anticancer screen, dose series, 48 h

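Results reflect a 48-hour exposure of cells in 96-well plates to compound at five concentrations. TGI denotes the concentration required for complete inhibition of growth.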 A value given as a limit tells only on which side of the number the result lay.

With `CC(C)(C)C1CCP(=O)(c2ccccc2)CC1` (configuration not stated), the TGI in the assay on CCRF-CEM leukemia, with RPMI-8226 leukemia, in the assay on UACC-62 melanoma, with U251 CNS, with OVCAR-8 ovarian and in the assay on DMS 273 small cell lung was more than 100 µM each time. Further, the TGI in the assay with HT29 colon and in the assay on MALME-3M melanoma was more than 100 µM each time.
On to `Cc1ccc(C)c(NC(=O)C(=O)CC(=O)c2cccc3ccccc23)c1`, for which the TGI in the assay on CCRF-CEM leukemia, in the assay with HOP-92 NSCLC, in the assay with RPMI-8226 leukemia, with UACC-62 melanoma, with U251 CNS and with OVCAR-8 ovarian was more than 100 µM throughout. Moreover, the TGI in the assay on DMS 273 small cell lung, in the assay with HT29 colon and with MALME-3M melanoma was more than 100 µM each time.
As for `C=C(CS(=O)(=O)c1ccccc1)C(=O)OCC`, the TGI in the assay on CCRF-CEM leukemia is 12.2 µM; with HOP-92 NSCLC it was 40 µM; in the assay on UACC-62 melanoma it was 13.8 µM; with U251 CNS it was 30.7 µM; in the assay on OVCAR-8 ovarian, 22.4 µM; in the assay on DMS 273 small cell lung, 35.5 µM. The TGI in the assay on HT29 colon is 23.3 µM; in the assay with MALME-3M melanoma it was 39.1 µM.
Take `CN(C(=O)C12C3C4C1C1C2C3C41C(=O)N(C)C(C)(C)C)C(C)(C)C` (configuration not stated): the TGI in the assay with CCRF-CEM leukemia, with HOP-92 NSCLC, in the assay on UACC-62 melanoma, with U251 CNS, in the assay with OVCAR-8 ovarian and in the assay on DMS 273 small cell lung was more than 50 µM each time. Moreover, the TGI in the assay on HT29 colon and in the assay with MALME-3M melanoma was more than 50 µM throughout.
With `NC(=O)c1ccccc1NC(=O)C(=O)Nc1n[nH]c(N)n1`, the TGI with CCRF-CEM leukemia, in the assay on RPMI-8226 leukemia, in the assay on UACC-62 melanoma, in the assay on U251 CNS, in the assay with OVCAR-8 ovarian and in the assay on DMS 273 small cell lung was more than 100 µM each time. Besides, the TGI with HT29 colon and with MALME-3M melanoma was more than 100 µM in each case.
On to `Cc1ccc(S(=O)(=O)Nc2cccc(C)c2C)cc1`, for which the TGI in the assay with CCRF-CEM leukemia was more than 100 µM; with HOP-92 NSCLC, more than 100 µM; with RPMI-8226 leukemia, more than 100 µM; with UACC-62 melanoma it was more than 100 µM; in the assay on U251 CNS it was 79.9 µM; with OVCAR-8 ovarian it was more than 100 µM. Further, the TGI with DMS 273 small cell lung, in the assay with HT29 colon and in the assay with MALME-3M melanoma was more than 100 µM throughout.
Regarding `O=S1c2ccccc2N=C(c2ccc3ccccc3c2)CC1c1ccccc1F` (configuration not stated), the TGI in the assay with CCRF-CEM leukemia, in the assay with RPMI-8226 leukemia, in the assay on UACC-62 melanoma, in the assay with U251 CNS, in the assay with OVCAR-8 ovarian and with DMS 273 small cell lung was more than 100 µM throughout. Also, the TGI in the assay on HT29 colon and with MALME-3M melanoma was more than 100 µM in each case.
With `COc1cc(-c2ccc(Nc3ccccc3C(=O)O)c(OC)c2)ccc1Nc1ccccc1C(=O)O`, the TGI in the assay with CCRF-CEM leukemia is 86.1 µM; with HOP-92 NSCLC, 66.9 µM; in the assay with MDA-N it was 97.5 µM; in the assay on RPMI-8226 leukemia, more than 95.8 µM; in the assay with UACC-62 melanoma, 35.6 µM; in the assay on U251 CNS, 37.3 µM. For the same compound, the TGI in the assay with OVCAR-8 ovarian is 81.5 µM; with DMS 273 small cell lung, more than 100 µM; with HT29 colon, more than 100 µM; with MALME-3M melanoma, more than 100 µM.
As to `COc1cc(-c2ccccc2)c(OC)cc1CCl`, the TGI in the assay with CCRF-CEM leukemia, in the assay on RPMI-8226 leukemia, with UACC-62 melanoma, in the assay with U251 CNS, in the assay with OVCAR-8 ovarian and with DMS 273 small cell lung was more than 100 µM in each case. Also, the TGI with HT29 colon and with MALME-3M melanoma was more than 100 µM each time.
`Cc1nn2c(=O)n(-c3cccc(-n4nnc5c(-c6ccccc6)c(C)nn5c4=O)c3C)nnc2c1-c1ccccc1`: the TGI with CCRF-CEM leukemia is more than 100 µM; with HOP-92 NSCLC it was more than 100 µM; with RPMI-8226 leukemia, 96.4 µM; with UACC-62 melanoma it was more than 100 µM; with U251 CNS it was more than 100 µM; with OVCAR-8 ovarian, more than 100 µM. Also, the TGI is more than 100 µM in the assay with DMS 273 small cell lung, more than 100 µM with HT29 colon and 56 µM with MALME-3M melanoma.
Turning to `COC(=O)[C@H]1CC(=O)C=C2CCCC21` (some centres not stated), the TGI in the assay on CCRF-CEM leukemia, in the assay on HOP-92 NSCLC, in the assay with RPMI-8226 leukemia, with UACC-62 melanoma, in the assay with U251 CNS and with OVCAR-8 ovarian was more than 100 µM in each case. Also, the TGI in the assay on DMS 273 small cell lung, with HT29 colon and with MALME-3M melanoma was more than 100 µM each time.
`CN=c1ss/c(=N\C(=S)N(C)C)n1C1CCCCC1`: the TGI is more than 31.6 µM with CCRF-CEM leukemia; more than 10 µM in the assay with HOP-92 NSCLC; more than 100 µM with RPMI-8226 leukemia; more than 31.6 µM in the assay on UACC-62 melanoma; more than 31.6 µM with U251 CNS; more than 31.6 µM in the assay with OVCAR-8 ovarian. In addition, the TGI in the assay with DMS 273 small cell lung, in the assay with HT29 colon and in the assay on MALME-3M melanoma was more than 31.6 µM in each case.
As to `O=c1c2cc(Br)ccc2[nH]c(=S)n1-c1ccccc1`, the TGI in the assay with CCRF-CEM leukemia, with HOP-92 NSCLC, in the assay on RPMI-8226 leukemia, in the assay on UACC-62 melanoma, in the assay with U251 CNS and in the assay on OVCAR-8 ovarian was more than 100 µM each time. Moreover, the TGI in the assay with DMS 273 small cell lung, in the assay on HT29 colon and in the assay on MALME-3M melanoma was more than 100 µM in each case.
